Experiments:
KRAS G12D = target: T1, KRAS G12D (Homo sapiens, UniProt P01116, G12D); assay: KRAS G12D HiBit assay; type: cell-based; settings: AsPc-1-KRAS (G12D)-HiBit-KI cell, compound treatment for 24 hours, absolute DC50
T1 construct: AsPc-1-KRAS (G12D)-HiBit-KI cell (Pharmaron); host or cells: AsPc-1-KRAS (G12D)-HiBit-KI cells (HiBiT knock-in at the endogenous KRAS locus)
Procedure, shortened: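 HiBiT luminescence, detected by adding lytic buffer, substrate and LgBiT protein, served as the KRAS G12D read-out. Compounds, serially diluted 3-fold over 10 points from 0.3 mM DMSO stock, were on cells for 24 h; percent inhibition normalized to cells given 0.1% DMSO only.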

KRAS G12V = target: T2, KRAS G12V (Homo sapiens, UniProt P01116, G12V); assay: KRAS G12V HiBit assay; type: cell-based; settings: SW620-KRAS (G12V)-HiBit-KI cells, compound treatment for 24 hours, class symbols
T2 construct: SW620-KRAS (G12V)-HiBit-KI cell (Pharmaron); host or cells: SW620-KRAS (G12V)-HiBit-KI cells (HiBiT knock-in at the endogenous KRAS locus)
Procedure, shortened: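 Luminescence from lytic Nano-Glo HiBiT detection with LgBiT read KRAS G12V levels after 24 h compound exposure. Dilutions were 10-point, 3-fold, from a 0.3 mM DMSO stock. Degradation activity was normalised to cells given 0.1% DMSO alone.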

T2 sequence (P01116 1-188 isoform P01116-2 G12V): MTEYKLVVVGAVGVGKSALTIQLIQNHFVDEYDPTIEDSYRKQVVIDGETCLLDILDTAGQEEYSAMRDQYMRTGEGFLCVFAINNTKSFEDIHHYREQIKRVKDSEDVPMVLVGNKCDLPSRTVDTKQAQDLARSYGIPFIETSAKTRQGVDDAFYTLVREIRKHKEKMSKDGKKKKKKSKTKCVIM
T1 sequence (P01116 1-188 isoform P01116-2 G12D): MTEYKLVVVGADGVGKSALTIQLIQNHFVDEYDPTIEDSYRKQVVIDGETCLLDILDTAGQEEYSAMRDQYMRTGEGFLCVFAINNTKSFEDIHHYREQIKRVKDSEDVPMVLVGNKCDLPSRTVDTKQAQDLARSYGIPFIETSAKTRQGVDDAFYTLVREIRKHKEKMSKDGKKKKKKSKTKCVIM

DC50 (KRAS G12D; class symbols) [nM] | DC50 (KRAS G12V) [nM] | DC50 (KRAS G12D; numeric bounds given in place of class symbols) [nM] | Compound
< 100 | < 10 |  | CCc1c(F)ccc2cc(O)cc(-c3ncc4c(N5CCC[C@H]5CO)nc(OC[C@@]56CCCN5[C@H](COC(=O)N5CCC7(CC5)CC(N5CCC(c8ccc9c(c8)n(C)c(=O)n9C8CCC(=O)NC8=O)CC5)C7)CC6)nc4c3F)c12 (stereo partly drawn) [Compound 351, ((3S,7aS)-7a-(((7-(8-ethyl-7-fluoro-3-hydroxynaphthalen-1-yl)-8-fluoro-4-((S)-2-(hydroxymethyl)pyrrolidin-1-yl)pyrido[4,3-d]pyrimidin-2-yl)oxy)methyl)hexahydro-1H-pyrrolizin-3-yl)methyl 2-(4-(1-(2,6-dioxopiperidin-3-yl)-3-methyl-2-oxo-2,3-dihydro-1H-benzo[d]imidazol-5-yl)piperidin-1-yl)-7-azaspiro[3.5]nonane-7-carboxylate]
< 100 | < 10 |  | CCc1c(F)ccc2cc(O)cc(-c3ncc4c(N5CCC[C@@H]5CO)nc(OC[C@@]56CCCN5[C@H](COC(=O)N5CCC7(CC5)CC(N5CCC(c8ccc9c(c8)n(C)c(=O)n9C8CCC(=O)NC8=O)CC5)C7)CC6)nc4c3F)c12 (stereo partly drawn) [Compound 352, ((3S,7aS)-7a-(((7-(8-ethyl-7-fluoro-3-hydroxynaphthalen-1-yl)-8-fluoro-4-((R)-2-(hydroxymethyl)pyrrolidin-1-yl)pyrido[4,3-d]pyrimidin-2-yl)oxy)methyl)hexahydro-1H-pyrrolizin-3-yl)methyl 2-(4-(1-(2,6-dioxopiperidin-3-yl)-3-methyl-2-oxo-2,3-dihydro-1H-benzo[d]imidazol-5-yl)piperidin-1-yl)-7-azaspiro[3.5]nonane-7-carboxylate]
< 100 | < 10 |  | CCc1c(F)ccc2cc(O)cc(-c3ncc4c(N5CCC[C@H](O)C5)nc(OC[C@@]56CCCN5[C@H](COC(=O)N5CCC7(CC5)CC(N5CCC(c8ccc9c(c8)n(C)c(=O)n9C8CCC(=O)NC8=O)CC5)C7)CC6)nc4c3F)c12 (stereo partly drawn) [Compound 354, ((3S,7aS)-7a-(((7-(8-ethyl-7-fluoro-3-hydroxynaphthalen-1-yl)-8-fluoro-4-((S)-3-hydroxypiperidin-1-yl)pyrido[4,3-d]pyrimidin-2-yl)oxy)methyl)hexahydro-1H-pyrrolizin-3-yl)methyl 2-(4-(1-(2,6-dioxopiperidin-3-yl)-3-methyl-2-oxo-2,3-dihydro-1H-benzo[d]imidazol-5-yl)piperidin-1-yl)-7-azaspiro[3.5]nonane-7-carboxylate]
< 100 | < 10 |  | CCc1c(F)ccc2cc(O)cc(-c3ncc4c(N5CCC(O)CC5)nc(OC[C@@]56CCCN5[C@H](COC(=O)N5CCC7(CC5)CC(N5CCC(c8ccc9c(c8)n(C)c(=O)n9C8CCC(=O)NC8=O)CC5)C7)CC6)nc4c3F)c12 (stereo partly drawn) [Compound 358, ((3S,7aS)-7a-(((7-(8-ethyl-7-fluoro-3-hydroxynaphthalen-1-yl)-8-fluoro-4-(4-hydroxypiperidin-1-yl)pyrido[4,3-d]pyrimidin-2-yl)oxy)methyl)hexahydro-1H-pyrrolizin-3-yl)methyl 2-(4-(1-(2,6-dioxopiperidin-3-yl)-3-methyl-2-oxo-2,3-dihydro-1H-benzo[d]imidazol-5-yl)piperidin-1-yl)-7-azaspiro[3.5]nonane-7-carboxylate]

The next lines start with the compound.

Compound | DC50 (KRAS G12D; class symbols) [nM] | DC50 (KRAS G12V) [nM] | DC50 (KRAS G12D; numeric bounds given in place of class symbols) [nM]
CCc1c(F)ccc2cc(O)cc(-c3ncc4c(N5CCC[C@@](C)(O)C5)nc(OC[C@@]56CCCN5[C@H](COC(=O)N5CCC(N7CC8(CCN(c9ccc%10c(c9)n(C)c(=O)n%10C9CCC(=O)NC9=O)CC8)C7)CC5)CC6)nc4c3F)c12 (stereo partly drawn) [Compound 362, ((3S,7aS)-7a-(((7-(8-ethyl-7-fluoro-3-hydroxynaphthalen-1-yl)-8-fluoro-4-((R)-3-hydroxy-3-methylpiperidin-1-yl)pyrido[4,3-d]pyrimidin-2-yl)oxy)methyl)hexahydro-1H-pyrrolizin-3-yl)methyl 4-(7-(1-(2,6-dioxopiperidin-3-yl)-3-methyl-2-oxo-2,3-dihydro-1H-benzo[d]imidazol-5-yl)-2,7-diazaspiro[3.5]nonan-2-yl)piperidine-1-carboxylate] | < 100 | < 10 | 
CCc1c(F)ccc2cc(O)cc(-c3ncc4c(N5CCC[C@@](C)(O)C5)nc(OC[C@@]56CCCN5[C@H](COC(=O)N5CCC(N7CC8(CCC(c9ccc%10c(c9)n(C)c(=O)n%10C9CCC(=O)NC9=O)CC8)C7)CC5)CC6)nc4c3F)c12 (stereo partly drawn) [Compound 363, ((3S,7aS)-7a-(((7-(8-ethyl-7-fluoro-3-hydroxynaphthalen-1-yl)-8-fluoro-4-((R)-3-hydroxy-3-methylpiperidin-1-yl)pyrido[4,3-d]pyrimidin-2-yl)oxy)methyl)hexahydro-1H-pyrrolizin-3-yl)methyl 4-(7-(1-(2,6-dioxopiperidin-3-yl)-3-methyl-2-oxo-2,3-dihydro-1H-benzo[d]imidazol-5-yl)-2-azaspiro[3.5]nonan-2-yl)piperidine-1-carboxylate] | < 100 | < 10 | 
CCc1c(F)ccc2cc(O)cc(-c3ncc4c(N5CCC[C@@](C)(O)C5)nc(OC[C@@]56CCCN5[C@H](COC(=O)N5CCC(CN7CC8(CCC(c9ccc%10c(c9)n(C)c(=O)n%10C9CCC(=O)NC9=O)CC8)C7)CC5)CC6)nc4c3F)c12 (stereo partly drawn) [Compound 364, ((3S,7aS)-7a-(((7-(8-ethyl-7-fluoro-3-hydroxynaphthalen-1-yl)-8-fluoro-4-((R)-3-hydroxy-3-methylpiperidin-1-yl)pyrido[4,3-d]pyrimidin-2-yl)oxy)methyl)hexahydro-1H-pyrrolizin-3-yl)methyl 4-((7-(1-(2,6-dioxopiperidin-3-yl)-3-methyl-2-oxo-2,3-dihydro-1H-benzo[d]imidazol-5-yl)-2-azaspiro[3.5]nonan-2-yl)methyl)piperidine-1-carboxylate] | < 100 | < 10 | 
CCc1c(F)ccc2cc(O)cc(-c3ncc4c(N5CCC[C@@](C)(O)C5)nc(OC[C@@]56CCCN5[C@H](COC(=O)N5CCC(N7CC8(CC(c9ccc%10c(c9)n(C)c(=O)n%10C9CCC(=O)NC9=O)C8)C7)CC5)CC6)nc4c3F)c12 (stereo partly drawn) [Compound 365, ((3S,7aS)-7a-(((7-(8-ethyl-7-fluoro-3-hydroxynaphthalen-1-yl)-8-fluoro-4-((R)-3-hydroxy-3-methylpiperidin-1-yl)pyrido[4,3-d]pyrimidin-2-yl)oxy)methyl)hexahydro-1H-pyrrolizin-3-yl)methyl 4-(6-(1-(2,6-dioxopiperidin-3-yl)-3-methyl-2-oxo-2,3-dihydro-1H-benzo[d]imidazol-5-yl)-2-azaspiro[3.3]heptan-2-yl)piperidine-1-carboxylate] | < 100 | < 10 | 
CCc1c(F)ccc2cc(O)cc(-c3ncc4c(N5CCC[C@@](C)(O)C5)nc(OC[C@@]56CCCN5[C@H](COC(=O)N5CCC(CN7CC8(CC(c9ccc%10c(c9)n(C)c(=O)n%10C9CCC(=O)NC9=O)C8)C7)CC5)CC6)nc4c3F)c12 (stereo partly drawn) [Compound 366, ((3S,7aS)-7a-(((7-(8-ethyl-7-fluoro-3-hydroxynaphthalen-1-yl)-8-fluoro-4-((R)-3-hydroxy-3-methylpiperidin-1-yl)pyrido[4,3-d]pyrimidin-2-yl)oxy)methyl)hexahydro-1H-pyrrolizin-3-yl)methyl 4-((6-(1-(2,6-dioxopiperidin-3-yl)-3-methyl-2-oxo-2,3-dihydro-1H-benzo[d]imidazol-5-yl)-2-azaspiro[3.3]heptan-2-yl)methyl)piperidine-1-carboxylate] | < 100 | 10 to 100 | 
C#Cc1c(F)ccc2cc(O)cc(-c3ncc4c(N5CCC[C@@](C)(O)C5)nc(OC[C@@]56CCCN5[C@H](COC(=O)N5CCN(CC#CCOc7cccc8c7n(C)c(=O)n8C7CCC(=O)NC7=O)CC5)CC6)nc4c3F)c12 (stereo partly drawn) [Compound 376, ((3S,7aS)-7a-(((7-(8-ethynyl-7-fluoro-3-hydroxynaphthalen-1-yl)-8-fluoro-4-((R)-3-hydroxy-3-methylpiperidin-1-yl)pyrido[4,3-d]pyrimidin-2-yl)oxy)methyl)hexahydro-1H-pyrrolizin-3-yl)methyl 4-(4-((1-(2,6-dioxopiperidin-3-yl)-3-methyl-2-oxo-2,3-dihydro-1H-benzo[d]imidazol-4-yl)oxy)but-2-yn-1-yl)piperazine-1-carboxylate] |  | > 100 | > 100
CCc1c(F)ccc2cc(O)cc(-c3ncc4c(N5CCC[C@@](C)(O)C5)nc(OC[C@@]56CCCN5[C@H](COC(=O)N5CCC(CN7C8CCC7CC(c7ccc9c(c7)n(C)c(=O)n9C7CCC(=O)NC7=O)C8)CC5)CC6)nc4c3F)c12 (stereo partly drawn) [Compound 393, ((3S,7aS)-7a-(((7-(8-ethyl-7-fluoro-3-hydroxynaphthalen-1-yl)-8-fluoro-4-((R)-3-hydroxy-3-methylpiperidin-1-yl)pyrido[4,3-d]pyrimidin-2-yl)oxy)methyl)hexahydro-1H-pyrrolizin-3-yl)methyl 4-((3-(1-(2,6-dioxopiperidin-3-yl)-3-methyl-2-oxo-2,3-dihydro-1H-benzo[d]imidazol-5-yl)-8-azabicyclo[3.2.1]octan-8-yl)methyl)piperidine-1-carboxylate] | < 100 | 10 to 100 | 
